# Measurements from ChEMBL document CHEMBL5518248, “Design, Synthesis, and Biological Evaluation of Novel Arylomycins against Multidrug-Resistant Gram-Negative Bacteria” (J Med Chem, 2024).
# Active and inactive are the calls of the source. No cut-off for these calls is given here.
# Columns and labels:
# [1] = Half life in Sprague-Dawley rat at 10 mg/kg, iv measured upto 24 hrs LC-MS/MS analysis; assay type: ADME, organism-based; conditions: in vivo
# [2] = Clearance in Sprague-Dawley rat at 10 mg/kg, iv measured upto 24 hrs LC-MS/MS analysis; assay type: ADME, organism-based; conditions: in vivo
# [3] = AUC (0 to t) in Sprague-Dawley rat at 10 mg/kg, iv measured upto 24 hrs LC-MS/MS analysis; assay type: ADME, organism-based; conditions: Sprague-Dawley, in vivo
# [4] = Volume of distribution at steady state in Sprague-Dawley rat at 10 mg/kg, iv measured upto 24 hrs LC-MS/MS analysis; assay type: ADME, organism-based; conditions: in vivo, read-out: Vdss
# [5] = MRT in Sprague-Dawley rat at 10 mg/kg, iv measured upto 24 hrs LC-MS/MS analysis; assay type: ADME, organism-based; conditions: in vivo
# [6] = system: Pseudomonas aeruginosa; test: Antibacterial activity against Pseudomonas aeruginosa T-2022 assessed as inhibition of bacterial growth measured after 18 to 20 hrs by broth microdilution method; assay type: functional; conditions: time 18-20 hrs
# [7] = system: Pseudomonas aeruginosa; test: Antibacterial activity against Pseudomonas aeruginosa 19-5 assessed as inhibition of bacterial growth measured after 18 to 20 hrs by broth microdilution method; assay type: functional; conditions: time 18-20 hrs
# [8] = system: Pseudomonas aeruginosa; test: Antibacterial efficacy against multi drug resistant Pseudomonas aeruginosa T-2022-D2-048 infected in cyclophosphamide-induced neutropenic thigh infection ICR mouse model assessed as decrease in bacterial burden at 40 mg/kg, iv dose measured after 24 hrs; assay type: functional, organism-based
# [9] = system: Escherichia coli; test: Antibacterial activity against Escherichia coli 14-2 assessed as inhibition of bacterial growth measured after 18 to 20 hrs by broth microdilution method; assay type: functional; conditions: time 18-20 hrs
# [10] = system: Klebsiella pneumoniae; test: Antibacterial activity against Klebsiella pneumoniae 15-5 assessed as inhibition of bacterial growth measured after 18 to 20 hrs by broth microdilution method; assay type: functional; conditions: time 18-20 hrs
# [11] = system: Acinetobacter baumannii; test: Antibacterial activity against Acinetobacter baumannii 17-8 assessed as inhibition of bacterial growth measured after 18 to 20 hrs by broth microdilution method; assay type: functional; conditions: time 18-20 hrs
# [12] = system: Pseudomonas aeruginosa; test: Antibacterial activity against Pseudomonas aeruginosa 17-1 assessed as inhibition of bacterial growth measured after 18 to 20 hrs by broth microdilution method; assay type: functional; conditions: time 18-20 hrs
# [13] = system: Escherichia coli; test: Antibacterial activity against Escherichia coli ATCC 35218 assessed as inhibition of bacterial growth measured after 18 to 20 hrs by broth microdilution method; assay type: functional; conditions: time 18-20 hrs
# [14] = system: Klebsiella pneumoniae; test: Antibacterial activity against Klebsiella pneumoniae 15-4 assessed as inhibition of bacterial growth measured after 18 to 20 hrs by broth microdilution method; assay type: functional; conditions: time 18-20 hrs
# [15] = system: Acinetobacter baumannii; test: Antibacterial activity against Acinetobacter baumannii 17-2 assessed as inhibition of bacterial growth measured after 18 to 20 hrs by broth microdilution method; assay type: functional; conditions: time 18-20 hrs
# [16] = system: Klebsiella pneumoniae; test: Antibacterial activity against Klebsiella pneumoniae 15-1 assessed as inhibition of bacterial growth measured after 18 to 20 hrs by broth microdilution method; assay type: functional; conditions: time 18-20 hrs
# [17] = system: Escherichia coli; test: Antibacterial activity against Escherichia coli 14-4 assessed as inhibition of bacterial growth measured after 18 to 20 hrs by broth microdilution method; assay type: functional; conditions: time 18-20 hrs
# [18] = Cytotoxicity against HEK293T cells assessed as inhibition of cell growth incubated for 24 hrs by CCK8 method; assay type: toxicity, cell-based, HEK-293T; conditions: human
# [19] = system: HepG2; test: Cytotoxicity against human HepG2 cells assessed as inhibition of cell growth incubated for 24 hrs by CCK8 method; assay type: functional, cell-based; conditions: HepG2, 24 h
# [20] = system: Jurkat; test: Cytotoxicity against human Jurkat cells assessed as inhibition of cell growth incubated for 24 hrs by CCK8 method; assay type: functional, cell-based
# [21] = system: HepG2; test: Cytotoxicity against human HepG2 cells assessed as inhibition of cell growth at 100 uM incubated for 24 hrs by CCK8 method relative to control; assay type: functional
# [22] = system: Jurkat; test: Cytotoxicity against human Jurkat cells assessed as inhibition of cell growth at 100 uM incubated for 24 hrs by CCK8 method relative to control; assay type: functional
# [23] = Cytotoxicity against HEK293T cells assessed as inhibition of cell growth at 100 uM incubated for 24 hrs by CCK8 method relative to control; assay type: toxicity, cell-based, HEK-293T; conditions: human
half-life [1] [h],clearance [2] [mL/min/kg],AUC(0-t) at 24 h [3] [ng·h/mL],Vd [4] [L/kg],MRT [5] [h],SMILES,MIC [7] [µg/mL],MIC [9] [µg/mL],MIC [10] [µg/mL],MIC [11] [µg/mL],MIC [12] [µg/mL],MIC [13] [µg/mL],MIC [14] [µg/mL],MIC [15] [µg/mL],MIC [16] [µg/mL],MIC [17] [µg/mL],also measured
2.8,0.954,170000,0.252,4.4,Cc1nc(-c2ccc(SSC(C)(C)C)cc2)ncc1C(=O)N[C@@H](CCN)C(=O)N(C)[C@@H]1C(=O)N[C@@H](C)C(=O)N[C@H](C(=O)NCC#N)Cc2ccc(OCCN)c(c2)-c2cc1ccc2OCCN,–,–,–,–,–,–,–,–,–,–,–
–,–,–,–,–,C[C@@H](O)[C@H]1C(=O)N2C(C(=O)O)=C(S[C@@H]3CN[C@H](C(=O)N(C)C)C3)[C@H](C)[C@H]12 [MEROPENEM],32,2,> 64,> 64,8,0.06,> 64,> 64,> 64,2,MIC [6]: > 64 µg/mL; Activity [8]: Active
0.37,10.8,15300,0.285,0.44,CCCSSCc1ccc(-c2ncc(C(=O)N[C@@H](CCN)C(=O)N(C)[C@@H]3C(=O)N[C@@H](C)C(=O)N[C@H](C(=O)NCC#N)Cc4ccc(OCCN)c(c4)-c4cc3ccc4OCCN)c(C)n2)cc1,–,–,–,–,–,–,–,–,–,–,–
1.04,3.6,46300,0.273,1.27,CCCCSSCc1ccc(-c2ncc(C(=O)N[C@@H](CCN)C(=O)N(C)[C@@H]3C(=O)N[C@@H](C)C(=O)N[C@H](C(=O)NCC#N)Cc4ccc(OCCN)c(c4)-c4cc3ccc4OCCN)c(C)n2)cc1,–,–,–,–,–,–,–,–,–,–,–
–,–,–,–,–,Cc1nc(-c2ccc(SSC(C)(C)C)cc2)ncc1C(=O)N[C@@H](CCN)C(=O)N(C)[C@@H]1C(=O)N[C@@H](C)C(=O)N[C@H](C(=O)O)Cc2ccc(OCCN)c(c2)-c2cc1ccc2OCCN.O=C(O)C(F)(F)F.O=C(O)C(F)(F)F.O=C(O)C(F)(F)F.O=C(O)C(F)(F)F,16,≤ 0.03,≤ 0.03,1,32,≤ 0.03,≤ 0.03,0.5,≤ 0.03,0.06,"IC50 at 24 h [18]: > 100 µM; IC50 [19]: > 100 µM; IC50 [20]: > 100 µM; inhibition at 100 µM [21]: -4.95%; inhibition at 100 µM [22]: 44.8%; inhibition at 24 h, 100 µM [23]: 26.1%"
